Tests used:
Type in all cases: functional
T47D = test: Growth inhibition of human T47D cells after 48 hrs by SRB staining method; settings: for CC50: read-out: pLC50 (the source's name) (converted); for TGI: read-out: pTGI (converted)
DU-145 = test: Growth inhibition of human DU145 cells after 48 hrs by SRB staining method; settings: DU-145, 48 h; for CC50: read-out: pLC50 (the source's name) (converted); for TGI: read-out: pTGI (converted)
UACC-257 = test: Growth inhibition of human UACC257 cells after 48 hrs by SRB staining method; settings: UACC-257, 48 h; for TGI: read-out: pTGI (converted)
PC-3 = test: Growth inhibition of human PC3 cells after 48 hrs by SRB staining method; settings: PC-3, 48 h; for CC50: read-out: pLC50 (the source's name) (converted); for TGI: read-out: pTGI (converted)
SK-MEL-5 = test: Growth inhibition of human SK-MEL-5 cells after 48 hrs by SRB staining method; settings: SK-MEL-5, 48 h; for TGI: read-out: pTGI (converted)
RXF 393 = test: Growth inhibition of human RXF393 cells after 48 hrs by SRB staining method; settings: RXF 393, 48 h; for TGI: read-out: pTGI (converted)
NCI/ADR-RES = test: Growth inhibition of human NCI/ADR-RES cells after 48 hrs by SRB staining method; settings: for CC50: read-out: pLC50 (the source's name) (converted); for TGI: read-out: pTGI (converted)
SK-MEL-2 = test: Growth inhibition of human SK-MEL-2 cells after 48 hrs by SRB staining method; settings: SK-MEL-2, 48 h; for TGI: read-out: pTGI (converted)
HCT-15 = test: Growth inhibition of human HCT15 cells after 48 hrs by SRB staining method; settings: HCT-15, 48 h; for TGI: read-out: pTGI (converted)
IGROV-1 = test: Growth inhibition of human IGROV1 cells after 48 hrs by SRB staining method; settings: IGROV-1, 48 h; for TGI: read-out: pTGI (converted)
SNB-19 = test: Growth inhibition of human SNB19 cells after 48 hrs by SRB staining method; settings: SNB-19, 48 h; for TGI: read-out: pTGI (converted)
SF-295 = test: Growth inhibition of human SF295 cells after 48 hrs by SRB staining method; settings: SF-295, 48 h; for TGI: read-out: pTGI (converted)
NCI-H226 = test: Growth inhibition of human NCI-H226 cells after 48 hrs by SRB staining method; settings: NCI-H226, 48 h
NCI-H460 = test: Growth inhibition of human NCI-H460 cells after 48 hrs by SRB staining method; settings: NCI-H460, 48 h; for TGI: read-out: pTGI (converted)
UACC-62 = test: Growth inhibition of human UACC62 cells after 48 hrs by SRB staining method; settings: UACC-62, 48 h; for TGI: read-out: pTGI (converted)
OVCAR-4 = test: Growth inhibition of human OVCAR4 cells after 48 hrs by SRB staining method; settings: OVCAR-4, 48 h; for TGI: read-out: pTGI (converted)
UO-31 = test: Growth inhibition of human UO31 cells after 48 hrs by SRB staining method; settings: UO-31, 48 h; for CC50: read-out: pLC50 (the source's name) (converted); for TGI: read-out: pTGI (converted)
MCF7 = test: Growth inhibition of human MCF7 cells after 48 hrs by SRB staining method; settings: MCF7, 48 h; for CC50: read-out: pLC50 (the source's name) (converted); for TGI: read-out: pTGI (converted)
M14 = test: Growth inhibition of human M14 cells after 48 hrs by SRB staining method; settings: M14, 48 h; for TGI: read-out: pTGI (converted)
ACHN = test: Growth inhibition of human ACHN cells after 48 hrs by SRB staining method; settings: for CC50: read-out: pLC50 (the source's name) (converted); for TGI: read-out: pTGI (converted)
786-0 = test: Growth inhibition of human 786-0 cells after 48 hrs by SRB staining method; settings: 786-0, 48 h; for CC50: read-out: pLC50 (the source's name) (converted); for TGI: read-out: pTGI (converted)
MDA-MB-435 = test: Growth inhibition of human MDA-MB-435 cells after 48 hrs by SRB staining method; settings: MDA-MB-435, 48 h; for CC50: read-out: pLC50 (the source's name) (converted); for TGI: read-out: pTGI (converted)
HOP-62 = test: Growth inhibition of human HOP62 cells after 48 hrs by SRB staining method; settings: HOP-62, 48 h; for TGI: read-out: pTGI (converted)
KM12 = test: Growth inhibition of human KM12 cells after 48 hrs by SRB staining method; settings: KM12, 48 h; for TGI: read-out: pTGI (converted)
HL-60 = test: Growth inhibition of human HL60 cells after 48 hrs by SRB staining method; settings: HL-60, 48 h; for CC50: read-out: pLC50 (the source's name) (converted); for TGI: read-out: pTGI (converted)
LOX IMVI = test: Growth inhibition of human LOX IMVI cells after 48 hrs by SRB staining method; settings: for TGI: read-out: pTGI (converted)
SK-OV-3 = test: Growth inhibition of human SKOV3 cells after 48 hrs by SRB staining method; settings: SK-OV-3, 48 h; for CC50: read-out: pLC50 (the source's name) (converted); for TGI: read-out: pTGI (converted)
[1] = Growth inhibition of human HS 578T cells after 48 hrs by SRB staining method; settings: for CC50: read-out: pLC50 (the source's name) (converted); for TGI: read-out: pTGI (converted)
NCI-H522 = test: Growth inhibition of human NCI-H522 cells after 48 hrs by SRB staining method; settings: NCI-H522, 48 h; for TGI: read-out: pTGI (converted)
Malme-3M = test: Growth inhibition of human MALME-3M cells after 48 hrs by SRB staining method; settings: for TGI: read-out: pTGI (converted)
NCI-H23 = test: Growth inhibition of human NCI-H23 cells after 48 hrs by SRB staining method; settings: NCI-H23, 48 h; for TGI: read-out: pTGI (converted)
A498 = test: Growth inhibition of human A498 cells after 48 hrs by SRB staining method; settings: A498, 48 h
SN12C = test: Growth inhibition of human SN12C cells after 48 hrs by SRB staining method
[2] = read-out: pLC50 (the source's name) (converted)

## CCOC(=O)CCC(NC(=O)c1ccc(Nc2nc3cc(N)cc(N)c3nc2-c2ccccc2)cc1)C(=O)OCC (stereo not drawn)
T47D
  GI50: 1.66 µM
  CC50: > 100 µM
  TGI: 4.9 µM
DU-145
  GI50: 44.7 µM
  CC50: > 100 µM
  TGI: > 100 µM
UACC-257
  GI50: 2 µM
  LC50: > 100 µM
  TGI: 4.9 µM
PC-3
  GI50: 21.4 µM
  CC50: > 100 µM
  TGI: 91.2 µM
SK-MEL-5
  GI50: 6.61 µM
  LC50: > 100 µM
  TGI: 31.6 µM
RXF 393
  GI50: 24.5 µM
  TGI: 85.1 µM
NCI/ADR-RES
  GI50: 19.5 µM
  CC50: > 100 µM
  TGI: 63.1 µM
SK-MEL-2
  GI50: 7.76 µM
  LC50: > 100 µM
  TGI: 74.1 µM
HCT-15
  GI50: 23.4 µM
  LC50: > 100 µM
  TGI: > 100 µM
IGROV-1
  GI50: 6.31 µM
  LC50: > 100 µM
  TGI: 89.1 µM
SNB-19
  GI50: 21.4 µM
  LC50: > 100 µM
  TGI: > 100 µM
SF-295
  GI50: 17.8 µM
  LC50: > 100 µM
  TGI: 43.7 µM
NCI-H226
  GI50: 26.9 µM
  LC50: > 100 µM
NCI-H226; read-out: pTGI (converted)
  TGI: 55 µM
NCI-H460
  GI50: 8.51 µM
  LC50 (concentration killing 50% of cells): > 100 µM
  TGI: 47.9 µM
UACC-62
  GI50: 3.55 µM
  LC50: 64.6 µM
  TGI: 14.5 µM
OVCAR-4
  GI50: 26.9 µM
  LC50: > 100 µM
  TGI: > 100 µM
UO-31
  GI50: 21.9 µM
  CC50: > 100 µM
  TGI: 75.9 µM
MCF7
  GI50: 29.5 µM
  CC50: > 100 µM
  TGI: > 100 µM
M14
  GI50: 2.51 µM
  LC50: 75.9 µM
  TGI: 5.89 µM
ACHN
  GI50: 12.9 µM
  CC50: > 100 µM
  TGI: 46.8 µM
786-0
  GI50: 17.8 µM
  CC50: 77.6 µM
  TGI: 37.2 µM
MDA-MB-435
  GI50: 12 µM
  CC50: > 100 µM
  TGI: 36.3 µM
HOP-62
  GI50: 19.5 µM
  LC50: 81.3 µM
  TGI: 39.8 µM
KM12
  GI50: 28.2 µM
  LC50: > 100 µM
  TGI: > 100 µM
HL-60
  GI50: 9.55 µM
  CC50: > 100 µM
  TGI: 51.3 µM
LOX IMVI
  GI50: 8.51 µM
  LC50: > 100 µM
  TGI: > 100 µM
SK-OV-3
  GI50: 21.9 µM
  CC50: > 100 µM
  TGI: 47.9 µM
[1]
  GI50: 33.9 µM
  CC50: > 100 µM
  TGI: 75.9 µM
NCI-H522
  GI50: 27.5 µM
  LC50: > 100 µM
  TGI: > 100 µM
Malme-3M
  GI50: 2.82 µM
  LC50: > 100 µM
  TGI: 6.17 µM
NCI-H23
  GI50: 18.6 µM
  LC50: > 100 µM
  TGI: 55 µM

## COc1cc(Nc2nc3cc(N)cc(N)c3nc2-c2ccccc2)cc(OC)c1OC
T47D
  GI50: 6.03 µM
  CC50: 95.5 µM
  TGI: 31.6 µM
DU-145
  GI50: 21.9 µM
  CC50: > 100 µM
  TGI: 74.1 µM
UACC-257
  GI50: 29.5 µM
  LC50: > 100 µM
  TGI: > 100 µM
PC-3
  GI50: 14.1 µM
  CC50: > 100 µM
  TGI: 58.9 µM
A498
  GI50: 31.6 µM
A498; [2]
  CC50: > 100 µM
A498; read-out: pTGI (converted)
  TGI: > 100 µM
SK-MEL-5
  GI50: 12.9 µM
  LC50: 58.9 µM
  TGI: 27.5 µM
RXF 393
  GI50: 14.5 µM
  TGI: 34.7 µM
RXF 393; [2]
  CC50: 83.2 µM
NCI/ADR-RES
  GI50: 14.5 µM
  CC50: > 100 µM
  TGI: 43.7 µM
SK-MEL-2
  GI50: 15.8 µM
  LC50: 77.6 µM
  TGI: 35.5 µM
HCT-15
  GI50: 15.1 µM
  LC50: > 100 µM
  TGI: 45.7 µM
IGROV-1
  GI50: 15.8 µM
  LC50: > 100 µM
  TGI: 57.5 µM
SNB-19
  GI50: 33.1 µM
  LC50: > 100 µM
  TGI: > 100 µM
SF-295
  GI50: 15.8 µM
  LC50: > 100 µM
  TGI: 42.7 µM
NCI-H460
  GI50: 17 µM
  LC50 (concentration killing 50% of cells): > 100 µM
  TGI: 52.5 µM
UACC-62
  GI50: 13.5 µM
  LC50: 74.1 µM
  TGI: 31.6 µM
OVCAR-4
  GI50: 0.0316 µM
  LC50: 25.7 µM
  TGI: 0.891 µM
UO-31
  GI50: 15.1 µM
  CC50: > 100 µM
  TGI: 91.2 µM
MCF7
  GI50: 25.7 µM
  CC50: > 100 µM
  TGI: 95.5 µM
M14
  GI50: 19.5 µM
  LC50: > 100 µM
  TGI: 44.7 µM
ACHN
  GI50: 16.6 µM
  CC50: > 100 µM
  TGI: 42.7 µM
786-0
  GI50: 14.5 µM
  CC50: > 100 µM
  TGI: 40.7 µM
MDA-MB-435
  GI50: 7.41 µM
  CC50: 69.2 µM
  TGI: 24.5 µM
HOP-62
  GI50: 16.2 µM
  LC50: 72.4 µM
  TGI: 34.7 µM
KM12
  GI50: 10.7 µM
  LC50: 81.3 µM
  TGI: 29.5 µM
HL-60
  GI50: 6.61 µM
  CC50: 64.6 µM
  TGI: 23.4 µM
LOX IMVI
  GI50: 18.6 µM
  LC50: > 100 µM
  TGI: 49 µM
SK-OV-3
  GI50: 22.9 µM
  CC50: > 100 µM
  TGI: 57.5 µM
[1]
  GI50: 15.1 µM
  CC50: > 100 µM
  TGI: 77.6 µM
SN12C
  GI50: 20.4 µM
SN12C; [2]
  CC50: > 100 µM
SN12C; read-out: pTGI (converted)
  TGI: 83.2 µM
NCI-H522
  GI50: 18.2 µM
  LC50: > 100 µM
  TGI: 53.7 µM
Malme-3M
  GI50: 12.9 µM
  LC50: 61.7 µM
  TGI: 28.2 µM
NCI-H23
  GI50: 25.1 µM
  LC50: > 100 µM
  TGI: 75.9 µM
